Values joined by “and” are separate entries in the source; they are usually repeats but may differ in a detail not shown here. Equal values may be shown once. Where a name gives a salt, the structure may show the parent alone.
Experiments:
[1] = intravenous route; cited from earlier work
[2] = Plasma pharmacokinetics and absolute bioavailability, oral day 1 vs 30-min i.v. infusion day 2, patients with solid tumours; set-up: mean maximal plasma concentration (Cmax) after intravenous dosing: dose or concentration left out as unconfirmed
Text: British Journal of Cancer (1997) 76(7), 946-951 ? 1997 Cancer Research Campaign The bloavailability of oral Gil 47211 (GG21 1), a new topoisomerase I inhibitor CJH Gerrits', JHM Schellens', GJ Creemers', P Wissel2, ASTh Planting', JF Pritchard2, S DePee2, M de Boer-Dennert', M Harteveld' and J Verweij' 'Department of Medical Oncology, Rotterdam Cancer Institute (Daniel den Hoed Kliniek) and University Hospital, The Netherlands; 2Glaxo Wellcome, Department of Pharmacokinetics, NC, USA Summary Topoisomerase I inhibitors are new compounds of interest for cancer chemotherapy. We performed a study with Gl147211, a new semisynthetic camptothecin analogue, to determine the absolute bioavailability of the drug given orally. […] Gi147211 was given orally on day 1 and as a 30-min infusion daily on days 2-5. The treatment course was repeated every 3 weeks. In subsequent patient cohorts, the dose of the oral formulation was escalated from 1.5 mg m-2 to 6.0 mg m-2; the dose for i.v. administration was fixed at 1.2 mg m-2. Plasma pharmacokinetics was performed on day 1 and 2 of the first course and on day 1 of the second course using a validated high-performance liquid chromatographic assay. […] Keywords: G1147211 (GG211); bioavailability; topoisomerase I inhibitor; phase I study G1147211 [7-(methylpiperazinomethylene)-10,11-ethylenedioxy- 20(S)-camptothecin dihydrochloride] is a water-soluble semisyn- thetic analogue of camptothecin (CPT). […] Its further development was stopped because of unpredictable and severe myelosuppression, gastro- intestinal toxicity and haemorrhagic cystitis (Gottlieb et al, 1970; Creaven et al, 1972; Muggia et al, 1972). Interest in CPT was renewed in the 1980s, because topoiso- merase I was identified as the single cellular target of CPT (Hsiang et al, 1988 1989), and an overexpression of topoisomerase I was found in various tumour cell lines but not in normal tissues (Giovanella et al, 1989; Hirabayashi et al, 1992). Topoisomerase I is a nuclear enzyme that resolves topological problems of the torsionally strained (supercoiled) DNA by forming a covalent adduct between topoisomerase I and the DNA, termed the cleav- able complex. This catalytic intermediate creates single-strand DNA breaks, allowing the DNA molecule to rotate around the intact DNA strand at the cleavage site, leading to a relaxation of Received 29 November 1996 Revised 27 March 1997 Accepted 1 April 1997 Correspondence to: CJH Gerrits, Department of Medical Oncology, Rotterdam Cancer Institute, (Daniel den Hoed Kliniek) and University Hospital, Groene Hilledijk 301, 3075 EA Rotterdam, The Netherlands the DNA molecule, and in this way replication, transcription and other DNA functions can proceed. These enzyme-bridged breaks are then resealed by topoisomerase I (Champoux, 1976; Muller, 1985; Muller et al, 1985; Camilloni et al, 1989). […] It has been documented that camptothecin (CPT) interferes with the breakage-reunion process of topoiso- merase I by stabilizing the enzyme-DNA cleavable complexes (Liu et al, 1989).

[3] = individual patients 1-19, i.v. 1.2 mg m-2, Table 3
[4] = individual patients, oral 6 mg m-2, Fed (after breakfast), Tables 3 and 4
[5] = individual patients, oral 6 mg m-2, fasted, Table 3
[6] = oral 6.0 mg m-2, lactone, Table 4

Compound: CC[C@@]1(O)C(=O)OCc2c1cc1n(c2=O)Cc2c-1nc1cc3c(cc1c2CN1CCN(C)CC1)OCCO3 [GI147211, 7-(methylpiperazinomethylene)-10,11-ethylenedioxy-20(S)-camptothecin dihydrochloride]
- main toxicity in animal toxicology studies [1]: myelosuppression was the main toxicity and was dose limiting
- Oral AUC total, mean ([2]; all oral doses 1.5-6 mg m-2, total = lactone plus acid, Table 3): 36.33 ng·h/mL
- intrapatient variability of the absolute bioavailability, median ([2]; course 1 vs course 2): 31%
- intrapatient variability of the absolute bioavailability, range ([2]; course 1 vs course 2): 3-88%
- absolute bioavailability, range between patients ([2]; human, in vivo): 4.8-24.3%
- mean maximal plasma concentration (Cmax) after intravenous dosing ([2]; human, in vivo): 21.76 ng/mL
- i.v. AUC, mean ([2]; human, in vivo, iv, 1.2 mg): 31.84 ng·h/mL
- cases with Tmax < 0.5 h ([2]; human, in vivo, po): 13 of 19
- dose dependence of oral bioavailability ([2]; human, in vivo, po): not dose dependent
- median Tmax ([2]; human, in vivo, po): 0.5 h
- terminal half-life after oral administration (lactone), range ([2]; human, in vivo, po): 2.0 to 13.0 h
- Oral Tmax ([2]; human, in vivo, po, 1.5 mg): 0.25 h
- Absolute bioavailability fasted, mean ([2]; human, in vivo, po, 6 mg): 11.4%
- Absolute bioavailability fed, mean ([2]; human, in vivo, po, 6 mg): 11.2%
- Oral Tmax fasted, mean ([2]; human, in vivo, po, 6 mg): 0.65 h
- Oral Tmax fed, mean ([2]; human, in vivo, po, 6 mg): 0.69 h
- influence of fasting or fed state on bioavailability ([2]; human, in vivo, po, 6 mg): no significant influence
- influence of fed or fasted state on Tmax ([2]; human, in vivo, po, 6 mg): not significantly influenced
- mean maximal plasma concentration (Cmax) after oral dosing ([2]; human, in vivo, po, 6 mg): 4.02 ? 3.57 ng ml-1
- i.v. t1/2, mean ([2]; i.v. 1.2 mg m-2, 13 patients of 6.0 mg m-2 level, Table 4): 8.53 h
- Oral AUC total ([2]; individual patient 18, oral 6 mg m-2, Fed, lactone plus acid, Table 3): 14.69 ng·h/mL
- i.v. AUC [2, 3]: 19.11 ng·h/mL
- i.v. t1/2 [2, 3]: 6.2 h (2×) and 6.0 h and 14.3 h and 5.6 h and 6.7 h and 7.0 h and 5.2 h and 9.5 h and 10.9 h and 10.5 h and 8.9 h and 6.8 h and 4.5 h and 18.6 h and 14.6 h and 7.2 h and 1.9 h and 4.9 h
- Oral t1/2 ([2]; individual patients, oral 1.5 mg m-2, Table 3): 2.5 h and 4.0 h
- Oral AUC total ([2]; individual patients, oral 1.5 mg m-2, lactone plus acid, Table 3): 3.12 ng·h/mL and 11.16 ng·h/mL
- Oral t1/2 ([2]; individual patients, oral 3 mg m-2, Table 3): 12.2 h and 7.7 h and 9.5 h and 5.1 h
- Oral AUC total ([2]; individual patients, oral 3 mg m-2, lactone plus acid, Table 3): 70.82 ng·h/mL and 12.81 ng·h/mL and 15.21 ng·h/mL and 24.05 ng·h/mL
- Oral t1/2 ([2]; individual patients, oral 3 mg m-2, second course (C2), Table 3): 2.0 h and 11.7 h
- Absolute bioavailability Lactone [2, 4]: 10.5% and 11.9%
- Oral t1/2 [2, 4]: 8.7 h and 6.0 h (2×) and 8.2 h and 11.1 h and 11.9 h and 4.1 h and 3.4 h and 3.5 h
- Absolute bioavailability Lactone [2, 5]: 11.1%
- Absolute bioavailability Total [2, 5]: 11.1%
- Oral t1/2 [2, 5]: 4.2 h and 4.5 h and 4.3 h (2×) and 6.1 h and 10.4 h and 9.7 h and 7.8 h and 6.2 h and 13.0 h and 6.7 h and 5.0 h and 3.7 h
- Oral AUC total ([2]; individual patients, oral 6 mg m-2, fasted, lactone plus acid, Table 3): 157.68 ng·h/mL and 30.60 ng·h/mL and 36.73 ng·h/mL and 39.35 ng·h/mL and 55.59 ng·h/mL and 27.76 ng·h/mL and 13.89 ng·h/mL and 28.78 ng·h/mL and 30.71 ng·h/mL and 40.52 ng·h/mL and 40.50 ng·h/mL
- Oral t1/2 ([2]; individual patients, oral 6 mg m-2, second course (C2), Table 3): 7.8 h and 7.2 h
- courses in which plasma concentrations could be measured at 24 h ([2]; oral): 21 % of courses
- courses in which plasma concentration-time curves could be measured up to 12 h ([2]; oral 6.0 mg m-2, lactone and total): 68 % of courses
- Oral t1/2 fasted, mean [2, 6]: 6.61 h
- Oral t1/2 fed, mean [2, 6]: 6.84 h

Reference: paper PMC2228077, “The bioavailability of oral GI147211 (GG211), a new topoisomerase I inhibitor” (British Journal of Cancer, 1997)
